Experiments:
Format in all cases: cell-based, human
neural crest cells (NCC) [1] = test: cMINC (UKN2) assay: circular migration of neural crest cells, with viability; details: for Ratio: migration/cytotoxicity ratio, hit requires ≥ 1.3, HTC used where no viability effect
Method: (§1) The research group initially developed the first version of the test in 2012 [40]. The test has been further improved and characterized. To perform the cMINC assay, NCCs were thawed in N2-S Medium and seeded on the day of migration-1 (DoM-1) on a 96-well polystyrene plate (Corning, Glendale, AZ, USA) around stoppers, to create a cell-free area of 2 mm diameter (Platypus Technologies, Madison, WI, USA). The cells were resuspended in N2-S Medium supplemented with […] of the cytokines EGF and FGF, and then counted and seeded around the stoppers at a density of 95,000 cells/cm^2. After 24 h, the stoppers were removed, and the medium was exchanged. The removal of the stoppers initiates migration of the NCCs into the cell-free area. For the treatment, the 5x-concentrated toxicant solution was added to the medium 24 h after stopper removal.
On day 2, cells were stained with 533 nM calcein-AM and 1 μg/mL H-33342 (both from Sigma, Steinheim, Germany) and observed using two different channels on the Cellomics ArrayScan VTI imaging microscope (Thermo Fisher, Pittsburgh, PA, USA) to assess viability and migration. For the migration, four pictures were taken in the region of interest (ROI) (5× magnification objective). Migration data were obtained using the software “Ringassay” (http://invitrotox.uni-konstanz.de/ (accessed on 3 November 2024)), which can estimate the previously cell-free area and count the number of H-33342 and calcein-AM double-positive cells. Cell viability was assessed by taking four pictures outside of the ROI with 10× magnification objective. Viable cells were defined as H-33342 and calcein-AM double-positive cells and calculated by an automatic algorithm of the ArrayScan VTI 700 Series software as described earlier. […] Each plate included wells for testing of negative (0.1% DMSO solvent) and positive controls (200 nM cytochalasin D) in addition to the wells for blinded samples. The data from control wells were used as acceptance criteria of the assay. […] Renormalization of the concentration–response curves was performed after a visual inspection that the two lowest test-concentration data points are in the no-effect range. The average response (relative to solvent control) of the lowest two test concentrations was calculated, and all other data points of the same curve were divided by this average value. The calculations of the benchmark concentrations 10 for viability (BMC10 (V)) and 25 for migration (BMC25 (M)) were performed with the online available BMC software (http://invitrotox.uni-konstanz.de/ (accessed on 4 November 2024)).

neural crest cells (NCC) [2] = test system: neural crest cells (NCC)
Method: as §1, with “The removal of the stoppers initiates migration of the NCCs into the cell-free area. For the treatment, the 5x-concentrated toxicant solution was added to the medium 24 h after stopper removal.” left out
On day 2, cells were stained with 533 nM calcein-AM and 1 μg/mL H-33342 (both from Sigma, Steinheim, Germany) and observed using two different channels on the Cellomics ArrayScan VTI imaging microscope (Thermo Fisher, Pittsburgh, PA, USA) to assess viability and migration. […] Cell viability was assessed by taking four pictures outside of the ROI with 10× magnification objective. Viable cells were defined as H-33342 and calcein-AM double-positive cells and calculated by an automatic algorithm of the ArrayScan VTI 700 Series software as described earlier. […] The average response (relative to solvent control) of the lowest two test concentrations was calculated, and all other data points of the same curve were divided by this average value. […]

neural crest cells (NCC) [3] = test: Transwell migration assay (FBS chemoattractant, 6 h); details: glucose or galactose medium
Method: Cells were seeded at a density of 50,000 cells/well (150,000 cells/cm^2) into the upper chamber (insert) of the 96-well transwell plates (pore size 8 μm, polycarbonate membrane, Corning, Glendale, AZ, USA). The cells were stimulated to migrate through the membrane by medium supplemented with 5% of the chemoattractant fetal bovine serum (FBS) (PAA Laboratories, Pasching, Austria) in the lower chamber (reservoir). For testing of migration inhibition upon compound treatment, compounds were used at a concentration of BMC10 (V) of prior cMINC testing. Three technical replicates per condition were used. As a control for “unstimulated” migration, medium without any chemoattractant was tested. As an endpoint specific control for “inhibited” migration, CytoD with a concentration of 200 nM was used. After 6 h incubation time, the medium was aspirated, and reservoirs were washed with DPBS. Afterwards, reservoirs were filled with EDTA dissociation solution (DPBS supplemented with 0.1% 0.5 M EDTA UltraPure pH 8.0 (Thermo Fisher Scientific, Waltham, MA, USA), and 0.18% NaCl) containing 0.25 μL/mL calcein-AM and incubated for 30 min at 37 °C. The plates were then centrifuged at 300× g for 5 min (1200 rpm, Heraeus Multifuge 1 S-R, ThermoScientific) to remove migrated cells from the membrane. The tray with 96 wells of permeable inserts was removed, and the receiver plate was measured in the spectrophotometer (TECAN, Männedorf, Switzerland) with an emission wavelength of 520 nm. After subtraction of the blank values, the number of migrated cells was normalized to that of cells stimulated with FBS.
To perform the experiments under mitochondria-dependent conditions, the cells were handled exactly in the same way, but the medium was adapted. The N2-S medium was adjusted, so that no glucose was present but galactose. The medium consisted of SILAC^TM Advanced DMEM/-F12 FLEX (Gibco/Fisher Scientific, Hampton, NH, USA), 15 μg/mL insulin, 400 μM GlutaMAX, 0.7 mM L-Arginine, 0.5 mM L-Lysine, 21.5 µM Phenol Red, 20 nM progesterone, 100 μM putrescine and 30 nM selenium, 92.5 μg/mL apotransferrin, 4.7 mg/mL galactose (18 mM). The cytokines 20 ng/mL EGF and 20 ng/mL FGF2 were always freshly added to each run.

## CO/C=C(/C(=O)OC)c1ccccc1COc1cccc(C(F)(F)F)n1 [Picoxystrobin, picoxystrobin]
Neural crest cells (NCC) [1]; Pre-Screen 1, single concentration 1:1000 of stock, in most cases 100 μM
  Migration: 65 % of control
Neural crest cells (NCC) [1]; medium supplemented with 1% human serum albumin
  effect of 1% HSA on inhibition of NCC migration: did not alter the effect
Neural crest cells (NCC) [1]; migration, primary screen, 24 h exposure
  BMC25 (M): 1e-05 M
Neural crest cells (NCC) [1]
  Ratio: 6.0
Neural crest cells (NCC) [1]; listed as BC2
  Ratio: 6.1
Neural crest cells (NCC) [2]
  BMC10 (V): 2.8 µM
Neural crest cells (NCC) [2]; galactose medium
  concentration range at which migration was inhibited: ~100 nM
Neural crest cells (NCC) [3]
  concentration at which transwell migration was inhibited: ≥ 5 µM

Source: article PMC11674305, “Inhibition of Neural Crest Cell Migration by Strobilurin Fungicides and Other Mitochondrial Toxicants” (Cells, 2024)
